target: PDE10A (Homo sapiens (Human), UniProt Q9Y233); assay: Measurement of PDE10A inhibitory activity-2 (PDE10A fraction prepared from MOLT-4 cells); type: biochemical; conditions: PDE10A fraction from MOLT-4 cells (peak around 250 mM NaCl)
Description: A human acute lymphoblastic lymphoma T cell line MOLT-4 (which can be purchased under ATCC No. CRL-1582 from ATCC) was cultured in an RPMI1640 medium containing 10% fetal bovine serum to obtain 5×10^8 MOLT-4 cells. The cells were recovered by centrifugation and suspended in 10 ml of buffer solution A (25 mM Tris-HCl, 5 mM 2-mercaptoethanol, 2 mM benzamidine, 2 mM EDTA, and 0.1 mM 4-(2-aminoethyl)benzenesulfonyl hydrochloride, pH 7.5). The cells were homogenized using a Polytron homogenizer and centrifuged (4° C., 25,000 g, 10 minutes). Then, the supernatant was further ultracentrifuged (4° C., 100,000 g, 60 minutes). The obtained supernatant was filtered through a 0.2 μm filter to obtain a soluble fraction.
HiTrap Q HP column (5 ml×2, GE Healthcare Japan Corp.) equilibrated with buffer solution A was charged with the obtained soluble fraction. Phosphodiesterase was eluted with 300 ml of buffer solution A containing a linear gradient solution of 0 to 0.8 M NaCl to recover sixty 5-ml fractions. Each fraction was tested for cAMP-metabolizing phosphodiesterase activity.
On the other hand, total RNA was prepared from Jurkat cells, one type of human T cell, and similarly subjected to RT-PCR. […] Eur J Biochem. 1999, 266 (3), 1118-2 has reported that PDE10A from the rat striatum and testis is eluted as an active peak centered around 250 mM NaCl.
For these reasons, this fraction was used as a solution for the evaluation of PDE10A inhibitory activity. The obtained solution was used to calculate the inhibitory activity (IC50) of a test compound in the same way as in the aforementioned test.

PDE10A, sequence (Q9Y233 whole entry): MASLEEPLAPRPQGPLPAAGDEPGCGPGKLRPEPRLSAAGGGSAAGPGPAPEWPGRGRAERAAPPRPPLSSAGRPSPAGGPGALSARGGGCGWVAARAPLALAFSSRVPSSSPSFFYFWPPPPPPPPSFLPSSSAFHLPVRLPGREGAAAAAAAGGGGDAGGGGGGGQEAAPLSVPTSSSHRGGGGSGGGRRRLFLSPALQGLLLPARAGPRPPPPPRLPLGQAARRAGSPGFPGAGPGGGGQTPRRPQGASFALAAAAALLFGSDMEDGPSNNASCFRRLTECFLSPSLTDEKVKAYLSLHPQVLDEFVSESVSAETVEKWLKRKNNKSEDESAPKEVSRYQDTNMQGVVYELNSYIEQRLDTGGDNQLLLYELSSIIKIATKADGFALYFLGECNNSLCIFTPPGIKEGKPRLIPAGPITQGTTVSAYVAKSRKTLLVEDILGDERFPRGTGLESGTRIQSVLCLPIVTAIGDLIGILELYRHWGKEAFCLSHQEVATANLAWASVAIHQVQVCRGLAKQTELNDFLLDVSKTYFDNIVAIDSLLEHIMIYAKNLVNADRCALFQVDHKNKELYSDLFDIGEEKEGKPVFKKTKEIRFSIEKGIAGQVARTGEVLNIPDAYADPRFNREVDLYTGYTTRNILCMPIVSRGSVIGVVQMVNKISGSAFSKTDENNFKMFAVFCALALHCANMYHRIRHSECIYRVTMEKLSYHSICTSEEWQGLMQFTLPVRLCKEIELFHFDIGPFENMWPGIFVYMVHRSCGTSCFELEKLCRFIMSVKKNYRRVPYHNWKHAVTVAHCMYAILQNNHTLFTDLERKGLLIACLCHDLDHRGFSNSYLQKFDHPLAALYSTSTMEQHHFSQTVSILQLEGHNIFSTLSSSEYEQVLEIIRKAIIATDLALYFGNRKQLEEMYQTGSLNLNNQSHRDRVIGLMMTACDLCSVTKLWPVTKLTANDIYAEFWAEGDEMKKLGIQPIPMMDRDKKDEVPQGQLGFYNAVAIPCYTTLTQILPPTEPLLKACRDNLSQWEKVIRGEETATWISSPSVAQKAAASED

| SMILES | IC50 [nM] |
| --- | --- |
| COC1CN(C(=O)c2cccc3nc(NC(=O)c4sc5c(C(C)=O)ccc(CO)c5c4C)ccc23)C1 [Example 115, 7-Acetyl-4-(hydroxymethyl)-N-(5-((3-methoxyazetidin-1-yl)carbonyl)quinolin-2-yl)-3-methylbenzo[b]thiophene-2-carboxamide] | 0.89 |
| COCc1ccc(C(C)=O)c2sc(C(=O)Nc3cc(CN4CCC(F)(F)C4)c4ccccc4n3)c(C)c12 [Example 48, 7-Acetyl-N-(4-((3,3-difluoropyrrolidin-1-yl)methyl)quinolin-2-yl)-4-(methoxymethyl)-3-methylbenzo[b]thiophene-2-carboxamide] | 0.85 |
| COCc1ccc(C(C)=O)c2sc(C(=O)Nc3ccc4c(C(=O)N5CCOCC5)cccc4n3)c(C)c12 [Example 95, 7-Acetyl-4-(methoxymethyl)-3-methyl-N-(5-((morpholin-4-yl)carbonyl)quinolin-2-yl)benzo[b]thiophene-2-carboxamide] | 0.48 |
| COCc1ccc(C(C)=O)c2sc(C(=O)Nc3ccc4c(COC(C)=O)cccc4n3)c(C)c12 [Example 83, (2-(7-Acetyl-4-(methoxymethyl)-3-methylbenzo[b]thiophene-2-carboxamido)quinolin-5-yl)methylacetate] | 0.86 |
| CC(=O)c1ccc(C(C)=O)c2c(C)c(C(=O)Nc3ccc4ccccc4n3)sc12 [Example 1, 4,7-Diacetyl-3-methyl-N-(quinolin-2-yl)benzo[b]thiophene-2-carboxamide] | 1.6 |
| Cc1c(C(=O)Nc2cc(C(C)(C)O)c3ccccc3n2)sc2c(C(=O)C3CCCC3)cccc12 [Example 25, 7-(Cyclopentylcarbonyl)-N-(4-(2-hydroxypropan-2-yl)quinolin-2-yl)-3-methylbenzo[b]thiophene-2-carboxamide] | 4 |
| [2H]C([2H])([2H])OC1CN(C(=O)c2cccc3nc(NC(=O)c4sc5c(C(C)=O)ccc(COC)c5c4C)ccc23)C1 [Example 122, 7-Acetyl-N-(5-((3-(^2H3)methoxyazetidin-1-yl)carbonyl)quinolin-2-yl)-4-(methoxymethyl)-3-methylbenzo[b]thiophene-2-carboxamide] | 0.29 |
| COCc1ccc(C(C)=O)c2sc(C(=O)Nc3ccc4c(C(=O)O)cccc4n3)c(C)c12 [Example 93, 2-(7-Acetyl-4-(methoxymethyl)-3-methylbenzo[b]thiophene-2-carboxamido)quinoline-5-carboxylic acid] | 0.11 |
| [2H]C([2H])([2H])OC1CN(C(=O)c2cccc3nc(NC(=O)c4sc5c(C(C)=O)ccc(C([2H])([2H])OC)c5c4C)ccc23)C1 [Example 123, 7-Acetyl-N-(5-((3-(^2H3)methoxyazetidin-1-yl)carbonyl)quinolin-2-yl)-4-(methoxy(^2H2)methyl)-3-methylbenzo[b]thiophene-2-carboxamide] | 0.22 |
| CCCOCc1ccc(C(C)=O)c2sc(C(=O)Nc3cc(C(C)(C)O)c4ccccc4n3)c(C)c12 [Example 30, 7-Acetyl-N-(4-(2-hydroxypropan-2-yl)quinolin-2-yl)-3-methyl-4-(propoxymethyl)benzo[b]thiophene-2-carboxamide] | 11 |
| COCc1ccc(C(C)=O)c2sc(C(=O)Nc3cc(C(=O)N4CC[C@@H](O)C4)c4ccccc4n3)c(C)c12 [Example 50, (R)-7-Acetyl-N-(4-((3-hydroxypyrrolidin-1-yl)carbonyl)quinolin-2-yl)-4-(methoxymethyl)-3-methylbenzo[b]thiophene-2-carboxamide] | 2.6 |
| COCc1ccc(C(C)=O)c2sc(C(=O)Nc3ccc4c(C(=O)N5CC(F)C5)cccc4n3)c(C)c12 [Example 99, 7-Acetyl-N-(5-((3-fluoroazetidin-1-yl)carbonyl)quinolin-2-yl)-4-(methoxymethyl)-3-methylbenzo[b]thiophene-2-carboxamide] | 0.11 |
| COCc1ccc(C(C)=O)c2sc(C(=O)Nc3cc(CN4CCCC4)c4ccccc4n3)c(C)c12 [Example 43, 7-Acetyl-4-(methoxymethyl)-3-methyl-N-(4-(pyrrolidin-1-ylmethyl)quinolin-2-yl)benzo[b]thiophene-2-carboxamide] | 6.2 |

— patent US9464076B2, “Benzothiophene derivative” (Daiichi Sankyo Company, Limited, priority 2013, dated 2016)
